Legend:
Type in all cases: cell-based
[1] = biological target: T1, GPR84 F187A (Homo sapiens, UniProt Q9NQS5, F187A); test: BRET β-arrestin-2 recruitment assay, HEK293T cells; settings: for EC50: F187A, read-out: β-arrestin-2 pEC50 ± SEM (converted)
T1 construct: FLAG (N); eYFP (C); expressed in transfected cells; host or cells: HEK293T, transient
Description: (§1) As a control, cells were transfected with 100:1 ratio of empty plasmid and the appropriate arrestin isoform fused to nano-luciferase. After 24 h, cells were seeded at 50,000 cells per well in poly-D-lysine-coated white 96-well plates and incubated at 37°C overnight. After 24 h, cells were washed twice with Hank’s balanced salt solution (HBSS), pH 7.4, and 10 μl/well of the nano-luciferase substrate coelenterazine-h (Nanolight Technologies) was added to a final concentration of 5 μM. Cells were incubated in the dark for 10 min at 37°C, after which 10 μl/well of the agonist compound was added, and the cells were incubated for another 5 minutes. 15 min after coelenterazine-h addition, reading of emission signals were performed on a PHERAstar FS plate reader (BMG Labtech) at 475 and 535 nm, representing nano-luciferase and eYFP emission signals, respectively. The net bioluminescence resonance energy transfer (BRET) ratio (mBRET) was calculated as follows: mBRET=(BRET^sample−BRET^control)*1000whereBRET=Emission^535nm/Emission^475nm

[2] = biological target: T2, GPR84 L336A (Homo sapiens, UniProt Q9NQS5, L336A); test: BRET β-arrestin-2 recruitment assay, HEK293T cells; settings: for EC50: L336A, read-out: β-arrestin-2 pEC50 ± SEM (converted)
T2 construct: FLAG (N); eYFP (C); expressed in transfected cells; host or cells: HEK293T, transient
T2 sequence (Q9NQS5 whole entry L336A): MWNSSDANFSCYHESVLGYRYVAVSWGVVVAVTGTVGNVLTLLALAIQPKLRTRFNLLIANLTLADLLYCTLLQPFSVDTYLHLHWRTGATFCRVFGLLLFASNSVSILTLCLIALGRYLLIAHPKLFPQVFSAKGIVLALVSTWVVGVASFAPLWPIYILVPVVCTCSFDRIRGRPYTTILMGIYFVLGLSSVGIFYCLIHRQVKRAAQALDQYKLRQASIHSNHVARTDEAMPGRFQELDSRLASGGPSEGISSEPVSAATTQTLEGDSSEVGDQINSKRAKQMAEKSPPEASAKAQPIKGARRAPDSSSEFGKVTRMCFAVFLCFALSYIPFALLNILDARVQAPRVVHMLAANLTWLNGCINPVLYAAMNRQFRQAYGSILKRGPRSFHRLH
Description: as §1

[3] = biological target: T3, GPR84-WT (Homo sapiens, UniProt Q9NQS5); test: BRET β-arrestin-2 recruitment assay, HEK293T cells; settings: Extended Data Table 4, read-out: β-arrestin-2 pEC50 ± SEM (converted)
T3 construct: FLAG (N); eYFP (C); expressed in transfected cells; host or cells: HEK293T, transient
T3 sequence (Q9NQS5 whole entry): as the sequence (Q9NQS5 whole entry L336A) above, with A336L counted along it
Description: as §1

[4] = biological target: GPR84 (Homo sapiens, UniProt Q9NQS5); test: CHO-K1-based HitHunter cAMP inhibition assay; settings: wild type GPR84; for EC50: CHO-K1 cells, forskolin 25 μM, read-out: cAMP pEC50 ± SEM (converted); for Emax: normalised to capric acid (100 μM), read-out: cAMP %Emax ± SEM
Chain of GPR84 (Q9NQS5 whole entry): as the sequence (Q9NQS5 whole entry L336A) above, with A336L counted along it
Description: CHO-K1 cells stably expressing human GPR84 (DiscoverX 95-0158C2) were seeded in 384-well plates at 15,000 cells per well in 20 μL of F12 medium supplemented with 10% fetal bovine serum (FBS), 19 mM HEPES, and 1% penicillin-streptomycin. After overnight incubation at 37 °C and 5% CO2, the medium was removed and replaced with PBS containing 0.1% BSA. Cells were stimulated for 30 min with forskolin (25 μM) and test compounds prepared in Dulbecco’s PBS (DPBS) with 0.1% BSA. Compounds were dissolved in DMSO and diluted appropriately. cAMP levels were quantified using the HitHunter® cAMP Assay for Small Molecules (DiscoverX 90-0075SM2) according to the manufacturer’s protocol. Luminescence was measured 18 h post-assay using a PHERAstar® FS plate reader (BMG Labtech).

[5] = biological target: T4, wild type GPR84 (Homo sapiens, UniProt Q9NQS5); test: pThr263/pThr264 GPR84 phosphorylation assay (magnetic bead capture); settings: for EC50: 5 min stimulation, read-out: pEC50 ± SEM, phosphorylation of Thr263 and Thr264 (converted)
T4 construct: expressed in transfected cells
T4 sequence (Q9NQS5 whole entry): as the sequence (Q9NQS5 whole entry L336A) above, with A336L counted along it
Description: Flp-In™ TREx™ 293 cells engineered to express FLAG-GPR84-eYFP were seeded onto poly-D-lysine-coated clear 96-well plates at a density of 5 x 10^4 cells/well and grown overnight before treatment with 100 ng/ml doxycycline to induce receptor expression. After 24 h, cells were serum starved for 2 hours then stimulated with the indicated agonists, prepared in serum free media, for 5 min at 37 °C. After washing with ice-cold PBS, cells were lysed in 100 μl/well lysis buffer (150 mM NaCl, 50 mM Tris-HCl, 5 mM EDTA, 1% IGEPAL (Nonidet P-40), 0.5% deoxycholic acid, and 0.1% SDS; pH 7.4) supplemented with protease and phosphatase inhibitor cocktail on an orbital shaker for 1 hour at 4 °C. Lysates were cleared by centrifugation at 3700 × g for 20 min at 4 °C and 80 μl of supernatants transferred into 96-U-bottom-well assay plates (Greiner Bio-One). GFP-Trap® magnetic agarose beads (1 μl/well) were washed then diluted in lysis buffer to give a total volume of 20 μl of bead slurry per well before adding to supernatant. Assay plates were incubated on a microplate shaker at 700 rpm for 2 h at 4 °C then washed three times with 100 μl of PBS with 0.1% Tween-20 (PBS-T) under magnetic force using a handheld magnetic separation block (Milliplex, Millipore). After washing, anti-pThr263/pThr264 antiserum was diluted 1:1000 in PBS-T then 60 μl added to assay plate. The plates were then incubated overnight at 4 °C on a microplate shaker. After another wash cycle (3 x with PBS-T), anti-rabbit horseradish […] (HRP)-linked secondary antibody was added to PBS-T to a final dilution of 1:10,000 and incubated on a microplate shaker for 2 h at room temperature. After a further wash cycle, 100 μl of TMB substrate solution was added to each well and the plates were incubated for 15 min. The reaction was stopped by the addition of 100 μl of 0.3 M sulphuric acid. The assay plates were then placed on a magnetic separation block and 100 μl of the supernatant was transferred to a transparent 96-well F-bottom plate. The OD at 450 nm was then read on a PHERAstar FS plate reader (BMG Labtech).

[6] = biological target: T4, wild type GPR84; test: pThr263/pThr264 immunoblot of immunoprecipitated GPR84-eYFP; settings: 1 μM
Description: eYFP-linked receptor constructs were immunoprecipitated from 200 μl cell lysates using GFP-Trap® agarose beads (Proteintech) according to manufacturer’s instructions. Immunocomplexes were washed three times in washing buffer, resuspended in 100 μl 2 × SDS-PAGE sample buffer and incubated at 60 °C for 10 min. Following centrifugation at 2500g for 5 min, 20 μl of immunoprecipitated proteins was resolved by SDS-PAGE on 4% to 12% BisTris gels. After separation, the proteins were transferred electrophoretically onto nitrocellulose membrane, which was then blocked using 5% bovine serum albumin (BSA) in Tris-buffered saline (TBS, 50 mM Tris-Cl, 150 mM NaCl, pH 7.6) for 1 h at room temperature on an orbital shaker. The membrane was then incubated with appropriate primary antibody in 5% BSA in TBS supplemented with 0.1% Tween (TBS-T) overnight at 4 °C. Anti-pThr^263/pThr^264 antiserum was diluted 1:2000 and anti-GFP was diluted 1:10,000. Subsequently, the membrane was washed (3 × 10 min with TBS-T) and incubated for 2 h with anti-rabbit secondary antibody diluted 1:10,000 in 5% BSA in TBS-T. After washing (3 × 10 min with TBS-T), proteins were detected using an Odyssey imaging system (Licor) according to the manufacturer’s instructions.

T1 sequence (Q9NQS5 whole entry F187A): as the sequence (Q9NQS5 whole entry L336A) above, with F187A, A336L counted along it

| SMILES | EC50 [1] [nM] | EC50 [2] [nM] | EC50 [3] [nM] | EC50 [4] [nM] | Emax [4] [%] | EC50 [5] [nM] | phosphorylation of Thr263 and Thr264 (immunoblot) [6] | efficacy in promoting interaction with β-arrestin-2 ([1]; Phe187Ala GPR84, HEK293T) | efficacy in promoting interaction with β-arrestin-2 ([2]; Leu336Ala GPR84, HEK293T) | potency and efficacy in promoting phosphorylation of Thr263/Thr264 ([5]; magnetic bead capture assay) |
| --- | --- | --- | --- | --- | --- | --- | --- | --- | --- | --- |
| Cc1cc(CCCc2cc(O)c[n+]([O-])c2)ccc1Cl [OX04954] | 4.07 | 1.32 | 28.2 | 0.0126 | 98 ± 1.8 | 7.59 | promoted phosphorylation | – | – | – |
| [O-][n+]1cc(O)cc(CCc2ccc(Cl)c(C(F)(F)F)c2)c1 [OX04529] | 3.09 | 1.23 | 58.9 | 0.012 | 97 ± 0.2 | 12.3 | ineffective | substantial efficacy | full agonist | weak efficacy |
